Measured values as given in article PMC10089316, “Adeno-Associated virus 8 delivers an immunomodulatory peptide to mouse liver more efficiently than to rat liver” (PLOS ONE, 2023).

Tests used:
[1] = cited from earlier work
Source text: All constructs contain both ShK-235 and EGFP.

[2] = molecular target: T1, mKv1.3 channels (Mus musculus, UniProt P16390); assay: whole-cell patch-clamp block of mKv1.3 by synthetic ShK-235; format: cell-based; details: Port-a-Patch, L929 fibroblasts stably expressing mKv1.3, 200 ms pulses −80 to 40 mV, 20–25°C, pH 7.4, N = 3 cells per concentration, mean ± SEM, read-out: IC50 for Kv1.3 block
T1 construct: expressed in transfected cells
T1 sequence (P16390 whole entry): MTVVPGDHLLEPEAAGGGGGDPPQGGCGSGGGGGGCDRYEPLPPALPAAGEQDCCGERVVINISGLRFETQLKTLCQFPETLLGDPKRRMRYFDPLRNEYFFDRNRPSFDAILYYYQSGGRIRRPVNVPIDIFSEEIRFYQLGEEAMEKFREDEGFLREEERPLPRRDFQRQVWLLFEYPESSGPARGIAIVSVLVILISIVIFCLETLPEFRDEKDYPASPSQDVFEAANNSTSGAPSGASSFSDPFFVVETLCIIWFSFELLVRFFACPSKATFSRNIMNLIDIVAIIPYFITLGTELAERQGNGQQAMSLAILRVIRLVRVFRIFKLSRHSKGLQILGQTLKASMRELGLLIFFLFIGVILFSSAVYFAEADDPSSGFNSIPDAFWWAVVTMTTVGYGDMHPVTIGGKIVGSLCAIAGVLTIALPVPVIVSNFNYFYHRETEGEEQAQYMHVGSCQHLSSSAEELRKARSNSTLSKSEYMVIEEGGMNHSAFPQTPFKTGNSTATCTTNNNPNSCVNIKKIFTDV
Experimental: Mouse L929 fibroblasts stably expressing mKv1.3 channels were a kind gift from Dr. Chandy (Nanyang Technological University, Singapore). They were maintained in Dulbecco’s modified Eagle’s medium (DMEM) supplemented with 10% heat-inactivated fetal bovine serum (FBS), 4 mM L-glutamine, 1 mM sodium pyruvate, and 500 μg/mL G418 (Calbiochem/EMD Millipore, Billerica, MA) and cultured to 60~70% confluence.
Patch clamp assays were conducted at room temperature (20–25°C) in the whole-cell configuration using a Port-a-Patch system (Nanion Technologies, Livingston, NJ) connected to a HEKA EPC10-USB amplifier controlled with the PatchMaster software (HEKA, Germany). The external solution contained 1 mM MgCl2, 160 mM NaCl, 4.5 mM KCl, 2 mM CaCl2, and 10 mM Hepes; pH was adjusted to 7.4 with NaOH. […]
The stock of synthetic ShK-235, the supernatants of transfected HEK293T cells, and the rodent serum samples were diluted in the external solution immediately before use and tested in triplicates without any further processing. Peak Kv1.3 currents were recorded before addition of the samples and after reaching steady-state block and results were analyzed using IGOR Pro software (WaveMetrics, Portland, OR) and the IC50 of channel block was calculated by nonlinear regression using Prism software (GraphPad Software, San Diego, CA).

[3] = system: other Kv1.x channels and the KCa3.1 channel; details: cited from earlier work
Source text: (§1) The voltage-gated Kv1.3 potassium channel has gained interest as a therapeutic target for obesity, as mice lacking Kv1.3 or treated with a Kv1.3 blocker are protected from high-fat diet (HFD)-induced obesity. Kv1.3 is also a target for autoimmune diseases, as […] (CCR7)^- effector memory T (TEM) lymphocytes express high levels of Kv1.3 upon activation and blocking of Kv1.3 inhibits their function. […] However, S ...

[4] = system: Kv1.3; details: cited from earlier work
Source text: as §1

Compound	immunogenicity [1]	IC50 [2] [nM]	block of other Kv1.x channels and KCa3.1 [3]	IC50 [4] [nM]
CC[C@H](C)[C@@H]1NC(=O)[C@H](CO)NC(=O)[C@H](Cc2c[nH]cn2)NC(=O)[C@H](CCCCN)NC(=O)[C@@H]2CSSC[C@@H]3NC(=O)[C@H]([C@@H](C)O)NC(=O)[C@H](CCCCN)NC(=O)[C@H](CCCNC(=N)N)NC(=O)[C@H](CSSC[C@H](NC(=O)[C@H](CCCNC(=N)N)NC(=O)[C@H](CO)NC(=O)[C@H](CCCCN)NC(=O)[C@@H]4CCCN4C(=O)[C@H]([C@@H](C)CC)NC(=O)[C@H]([C@@H](C)O)NC(=O)[C@H](CC(=O)O)NC(=O)[C@H]([C@@H](C)CC)NC(=O)[C@@H](NC(=O)[C@H](CO)NC(=O)[C@@H](N)CCCNC(=N)N)CSSC[C@@H](C(=O)N[C@@H](C)C(=O)O)NC(=O)[C@H]([C@@H](C)O)NC(=O)CNC3=O)C(=O)N[C@@H]([C@@H](C)O)C(=O)N[C@@H](C)C(=O)N[C@@H](Cc3ccccc3)C(=O)N[C@@H](CCCCN)C(=O)N2)NC(=O)[C@H](Cc2ccccc2)NC(=O)[C@H](CO)NC(=O)[C@H](CC(C)C)NC(=O)[C@H](CCCNC(=N)N)NC(=O)[C@H](Cc2ccc(O)cc2)NC(=O)[C@H](CCCCN)NC1=O [ShK-235]	not immunogenic	0.0709 ± 0.0219		
ShK: small peptide produced by the sea anemone Stichodactyla helianthus, one of the most potent blockers of Kv1.3 (RSCIDTIPKSRCTAFKCKHSIKYRLSFCRKTCGTCA)			in the pM to low nM range	0.01
